In patent US8629148B2, “Substituted oxindole-derivatives and the use thereof for the treatment of vasopressin-dependent illnesses” (AbbVie Deutschland GmbH & Co. KG, priority 2007, dated 2014):

Assays:
[1] = biological target: T1, human vasopressin V1b receptor (Homo sapiens, UniProt P47901); assay: Vasopressin V1b receptor binding assay (3H-AVP displacement, CHO-K1 membranes)
T1 construct: expressed in transfected cells; host or cells: CHO-K1 (cell line hV1b_3H2_CHO), membranes
T1 sequence (P47901 1-424): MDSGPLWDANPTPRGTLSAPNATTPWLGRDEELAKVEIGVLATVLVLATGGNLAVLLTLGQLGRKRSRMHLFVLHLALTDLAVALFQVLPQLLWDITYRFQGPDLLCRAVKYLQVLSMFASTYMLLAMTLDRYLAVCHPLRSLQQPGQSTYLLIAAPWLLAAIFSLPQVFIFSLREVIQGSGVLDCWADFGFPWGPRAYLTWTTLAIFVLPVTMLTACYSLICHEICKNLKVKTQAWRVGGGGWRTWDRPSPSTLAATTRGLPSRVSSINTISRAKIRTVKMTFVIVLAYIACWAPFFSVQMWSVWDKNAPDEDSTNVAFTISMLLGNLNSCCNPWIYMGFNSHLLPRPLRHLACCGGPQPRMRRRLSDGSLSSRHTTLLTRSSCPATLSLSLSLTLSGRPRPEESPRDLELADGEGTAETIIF
Procedure: 1. Vasopressin V1b Receptor Binding Assay:
The substance concentration was further diluted 1:5 in the assay mixture (2% DMSO in the mixture).
All determinations were carried out as triplicate determinations.

[2] = biological target: human vasopressin V1a receptor (Homo sapiens, UniProt P37288); assay: Vasopressin V1a receptor binding assay (125I-AVP displacement, CHO-K1 membranes); details: selectivity quotient, human V1a vs human V1b
[3] = biological target: T2, recombinant human oxytocin receptors (Homo sapiens, UniProt P30559); assay: Oxytocin receptor binding assay (3H-oxytocin, HEK-293 cells); details: selectivity quotient, human OT vs human V1b
T2 construct: expressed in transfected cells; host or cells: HEK-293, transient expression; lysed and homogenized cells
T2 sequence (P30559 1-389): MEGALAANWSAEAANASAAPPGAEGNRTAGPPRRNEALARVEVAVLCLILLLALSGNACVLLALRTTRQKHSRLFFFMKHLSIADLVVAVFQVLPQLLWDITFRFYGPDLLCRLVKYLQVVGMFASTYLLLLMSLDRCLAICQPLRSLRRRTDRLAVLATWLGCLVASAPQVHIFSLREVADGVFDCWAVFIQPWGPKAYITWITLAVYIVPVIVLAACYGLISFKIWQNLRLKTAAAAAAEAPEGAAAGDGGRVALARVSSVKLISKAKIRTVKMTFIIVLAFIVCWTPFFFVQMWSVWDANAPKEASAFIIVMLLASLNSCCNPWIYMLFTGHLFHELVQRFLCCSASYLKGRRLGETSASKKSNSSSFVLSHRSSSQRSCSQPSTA
Procedure: The residue was taken up in ice-cold lysis buffer (50 mM Tris-HCl, 10% glycerol, pH 7.4 and Roche complete protease inhibitor) and subjected to an osmotic shock at 4° C. for 20 minutes. The lyzed cells were then centrifuged at 750×g at 4° C. for 20 minutes, the residue was taken up in incubation buffer, and aliquots of 10^7 cells/ml were prepared. The aliquots were frozen at −80° C. until used.
On the day of the experiment, the cells were thawed, diluted with incubation buffer and homogenized using a Multipette Combitip (Eppendorf, Hamburg). […] Triplicate determinations were set up. Bound and free radioligand were separated by filtration under vacuum with Whatman GF/B glass fiber filters with the aid of a Skatron cell harvester 7000. The bound radioactivity was determined by liquid scintillation measurement in a Tricarb Beta counter, model 2000 or 2200CA (Packard).

human vasopressin V1a receptor, sequence (P37288 whole entry): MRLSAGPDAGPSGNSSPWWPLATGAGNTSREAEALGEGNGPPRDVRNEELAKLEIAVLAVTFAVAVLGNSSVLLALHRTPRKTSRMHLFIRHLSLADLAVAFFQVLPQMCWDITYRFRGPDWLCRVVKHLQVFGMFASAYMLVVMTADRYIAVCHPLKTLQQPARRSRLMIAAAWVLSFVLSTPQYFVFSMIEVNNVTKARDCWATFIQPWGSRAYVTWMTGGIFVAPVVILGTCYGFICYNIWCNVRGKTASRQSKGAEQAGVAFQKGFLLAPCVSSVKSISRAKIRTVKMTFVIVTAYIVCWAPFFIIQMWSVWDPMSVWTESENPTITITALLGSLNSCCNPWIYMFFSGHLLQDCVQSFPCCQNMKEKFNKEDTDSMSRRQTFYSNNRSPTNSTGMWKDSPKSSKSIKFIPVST

Row | Ki [1] [nM] | Ki(h-V1a)/Ki(h-V1b)* [2] | Ki(h-OT)/Ki(h-V1b)* [3] | SMILES
1 | 1 to 10 | +++ (>75) | ++ (25-75) | CCOc1ncccc1C1(OC(=O)c2ccc(N3CCN(C)CC3)cc2)C(=O)N(S(=O)(=O)c2ccc(OC)cc2)c2ccc(C#N)cc21 (stereo not drawn) [Example 2, 5-Cyano-3-(2-ethoxypyridin-3-yl)-1-(4-methoxyphenylsulfonyl)-2-oxo-2,3-dihydro-1H-indol-3-yl-4-(4-methylpiperazin-1-yl)benzoate]
2 | 1 to 10 | +++ (>75) | + (10-<25) | CCOc1ncccc1C1(OC(=O)c2ccc(N3CCN(C)CC3)cc2)C(=O)N(S(=O)(=O)c2ccc(OC)cc2OC)c2ccc(C#N)cc21 (stereo not drawn) [Example 3, 5-Cyano-1-(2,4-dimethoxyphenylsulfonyl)-3-(2-ethoxypyridin-3-yl)-2-oxo-2,3-dihydro-1H-indol-3-yl 4-(4-methylpiperazin-1-yl)benzoate]
3 | 1 to 10 | +++ (>75) | ++ (25-75) | CCOc1ncccc1C1(NC(=O)c2ccc(N3CCN(C)CC3)cc2)C(=O)N(S(=O)(=O)c2ccc(OC)cc2)c2ccc(C#N)cc21 (stereo not drawn) [Example 4, N-[5-Cyano-3-(2-ethoxypyridin-3-yl)-1-(4-methoxyphenylsulfonyl)-2-oxo-2,3-dihydro-1H-indol-3-yl]-4-(4-methylpiperazin-1-yl)benzamide]
4 | 1 to 10 | +++ (>75) | +++ (>75) | CCOc1ncccc1C1(NC(=O)c2ccc(N3CCN(CC)CC3)cc2)C(=O)N(S(=O)(=O)c2ccc(OC)cc2)c2ccc(C#N)cc21 (stereo not drawn) [Example 5, N-[5-Cyano-3-(2-ethoxypyridin-3-yl)-1-(4-methoxyphenylsulfonyl)-2-oxo-2,3-dihydro-1H-indol-3-yl]-4-(4-ethylpiperazin-1-yl)benzamide]
5 | 1 to 10 | +++ (>75) | ++ (25-75) | CCOc1ncccc1C1(NC(=O)c2ccc(N3CCN(C)CC3)cc2)C(=O)N(S(=O)(=O)c2ccc(OC)cc2OC)c2ccc(C#N)cc21 (stereo not drawn) [Example 6, N-[5-Cyano-1-(2,4-dimethoxyphenylsulfonyl)-3-(2-ethoxypyridin-3-yl)-2-oxo-2,3-dihydro-1H-indol-3-yl]-4-(4-methylpiperazin-1-yl)benzamide]
6 | 1 to 10 | +++ (>75) | ++ (25-75) | CCOc1ncccc1C1(NC(=O)c2ccc(N3CCN(CC)CC3)cc2)C(=O)N(S(=O)(=O)c2ccc(OC)cc2OC)c2ccc(C#N)cc21 (stereo not drawn) [Example 7, N-[5-Cyano-1-(2,4-dimethoxyphenylsulfonyl)-3-(2-ethoxypyridin-3-yl)-2-oxo-2,3-dihydro-1H-indol-3-yl]-4-(4-ethylpiperazin-1-yl)benzamide]
7 | 10 to 100 | + (10-<25) | ++ (25-75) | CCOc1ncccc1C1(NCc2ccc(N3CCN(C)CC3)cc2)C(=O)N(S(=O)(=O)c2ccc(OC)cc2)c2cc(Cl)c(F)cc21 (stereo not drawn) [Example 13, 6-Chloro-3-(2-ethoxypyridin-3-yl)-5-fluoro-1-(4-methoxyphenylsulfonyl)-3-[4-(4-methylpiperazin-1-yl)benzylamino]-1,3-dihydroindol-2-one]
8 | 1 to 10 | + (10-<25) | ++ (25-75) | CCOc1ncccc1C1(NCc2ccc(N3CCN(C)CC3)cc2)C(=O)N(S(=O)(=O)c2ccc(OC)cc2)c2cc(F)c(F)cc21 (stereo not drawn) [Example 14, 5,6-Difluoro-3-(2-ethoxypyridin-3-yl)-1-(4-methoxyphenylsulfonyl)-3-[4-(4-methylpiperazin-1-yl)benzylamino]-1,3-dihydroindol-2-one]
9 | 1 to 10 | ++ (25-75) | +++ (>75) | CCOc1ncccc1C1(NCc2ccc(N3CCN(C)CC3)cc2)C(=O)N(S(=O)(=O)c2ccc(OC)cc2)c2ccc(F)cc21 (stereo not drawn) [Example 15, 3-(2-Ethoxypyridin-3-yl)-5-fluoro-1-(4-methoxyphenylsulfonyl)-3-[4-(4-methylpiperazin-1-yl)benzylamino]-1,3-dihydroindol-2-one]
10 | 1 to 10 | +++ (>75) | +++ (>75) | CCOc1ncccc1C1(NCc2ccc(N3CCN(C)CC3)cc2)C(=O)N(S(=O)(=O)c2ccc(OC)cc2)c2ccc(C#N)cc21 (stereo not drawn) [Example 16, 3-(2-Ethoxypyridin-3-yl)-1-(4-methoxyphenylsulfonyl)-3-[4-(4-methylpiperazin-1-yl)-benzylamino]-2-oxo-2,3-dihydro-1H-indole-5-carbonitrile]
11 | 1 to 10 | + (10-<25) | + (10-<25) | CCOc1ncccc1C1(NCc2ccc(N3CCN(C)CC3)cc2)C(=O)N(S(=O)(=O)c2ccc(OC)cc2OC)c2ccc(C#N)cc21 (stereo not drawn) [Example 17, 1-(2,4-Dimethoxyphenylsulfonyl)-3-(2-ethoxypyridin-3-yl)-3-[4-(4-methylpiperazin-1-yl)-benzylamino]-2-oxo-2,3-dihydro-1H-indole-5-carbonitrile]
12 | 1 to 10 | +++ (>75) | + (10-<25) | CCOc1ncccc1C1(NCc2ccc(N3CCN(C)CC3)cc2)C(=O)N(S(=O)(=O)c2ccccc2OC)c2ccc(C#N)cc21 (stereo not drawn) [Example 24, 3-(2-Ethoxypyridin-3-yl)-1-(2-methoxyphenylsulfonyl)-3-[4-(4-methylpiperazin-1-yl)-benzylamino]-2-oxo-2,3-dihydro-1H-indole-5-carbonitrile]
13 | 10 to 100 | ++ (25-75) | + (10-<25) | CCOc1ncccc1C1(NCc2ccc(N3CCN(C)CC3)cc2)C(=O)N(S(=O)(=O)c2cccc(OC)c2)c2ccc(C#N)cc21 (stereo not drawn) [Example 25, 3-(2-Ethoxypyridin-3-yl)-1-(3-methoxyphenylsulfonyl)-3-[4-(4-methylpiperazin-1-yl)-benzylamino]-2-oxo-2,3-dihydro-1H-indole-5-carbonitrile]
14 | 10 to 100 | ++ (25-75) | +++ (>75) | CCOc1ncccc1C1(NCc2ccc(N3CCN(C)CC3)cc2)C(=O)N(S(=O)(=O)c2ccc(Cl)cc2)c2ccc(C#N)cc21 (stereo not drawn) [Example 26, 1-(4-Chlorophenylsulfonyl)-3-(2-ethoxypyridin-3-yl)-3-[4-(4-methylpiperazin-1-yl)-benzylamino]-2-oxo-2,3-dihydro-1H-indole-5-carbonitrile]
15 | 10 to 100 | + (10-<25) | +++ (>75) | CCOc1ncccc1C1(NCc2ccc(N3CCN(C)CC3)cc2)C(=O)N(S(=O)(=O)c2ccccc2)c2ccc(C#N)cc21 (stereo not drawn) [Example 27, 1-Phenylsulfonyl-3-(2-ethoxypyridin-3-yl)-3-[4-(4-methylpiperazin-1-yl)benzylamino]-2-oxo-2,3-dihydro-1H-indole-5-carbonitrile]
16 | 10 to 100 | + (10-<25) | +++ (>75) | CCOc1ncccc1C1(NCc2ccc(N3CCN(C)CC3)cc2)C(=O)N(S(=O)(=O)c2ccc(C#N)cc2)c2ccc(C#N)cc21 (stereo not drawn) [Example 28, 1-(4-Cyanophenylsulfonyl)-3-(2-ethoxypyridin-3-yl)-3-[4-(4-methylpiperazin-1-yl)-benzylamino]-2-oxo-2,3-dihydro-1H-indole-5-carbonitrile]
